Like-named read-outs stand apart in the source and are kept apart here.
Assays:
[1] = system: stage II invasive breast cancer (ER+ subset); assay: Randomized clinical trial of two years of adjuvant tamoxifen vs no treatment (Swedish SBII:2a); recurrence-free survival by biomarker subgroup; assay type: in vivo, human; settings: for HR RFS: ER+
Description: From 1986 to 1991, 564 patients enrolled in a a randomized clinical trial for adjuvant tamoxifen treatment in early breast cancer (Swedish SBII:2a)(15). Criteria for enrollment included premenopausal status or age less than 50 years, with stage II invasive breast cancer. Patients were randomized to receive two years of tamoxifen (n=276) or no treatment (control, n=288), and were followed for disease-free and overall survival, with a median follow-up of 13.9 years. A detailed description of the trial and results has previously been published (15,16).
For analysis of tamoxifen response, only the ER+ subset of patients were included (16). By IHC, a cut-off value of at least 10% nuclear immunoreactivity was used to classify patients as ER-positive.
The statistical calculations were performed using SPSS Version 13.0 (SPSS, Chicago, Ill.) and Stata Version 9.2 (StataCorp, College Station, Tex.). Pearson's correlation coefficient (R) was used to assess the correlation between log AQUA-EGFR scores from redundant tumor cores and Spearman's Rho to assess the correlation between AQUA-EGFR score and other variables. Recurrence-free survival (RFS) was chosen as endpoint in the present study. RFS included breast cancer specific death, distant, regional and local recurrences and all analyses were performed with the intention to treat rule. The AQUA-EGFR score was dichotomized at the median in order to avoid bias problems associated with cut-off optimization. Kaplan-Meier plots were used to illustrate the survival in high and low EGFR, respectively, and the log rank test to test for equality of survival curves. Hazard ratios were estimated using Cox regression. Proportional hazards assumptions were checked using Schoenfeld's test. The null hypothesis of equal treatment effects in high and low EGFR were evaluated using a Cox model with a term for the interaction between EGFR class and treatment. Cox models with continuous AQUA-EGFR score were also fitted. The original score and a logarithmic transformation of the score were evaluated. […] All p-values corresponded to two-sided tests and values less than 0.05 were considered significant.

[2] = system: stage II invasive breast cancer (ER+ subset); settings: Cox univariate, tamoxifen vs control, cited from earlier work

## CC/C(=C(\c1ccccc1)c1ccc(OCCN(C)C)cc1)c1ccccc1 [Tamoxifen]
[1]; Cox multivariate, Tamoxifen Treatment (+/-), n = 324 (available data in 186 patients)
  HR RFS: 0.571
[1]; Cox univariate, tamoxifen vs control, EGFR-AQUA High, n = 73
  HR RFS: 1.14
[1]; Cox univariate, tamoxifen vs control, EGFR-AQUA Low, n = 113
  HR RFS: 0.43
[1]; Cox univariate, tamoxifen vs control, EGFR-IHC High, n = 27
  HR RFS: 0.73
[1]; Cox univariate, tamoxifen vs control, EGFR-IHC Low, n = 232
  HR RFS: 0.57
[1]; Cox univariate, tamoxifen vs control, HER2-AQUA High, N = 10
  HR RFS: 0.28
[1]; Cox univariate, tamoxifen vs control, HER2-AQUA Low, N = 231
  HR RFS: 0.64
[1]; ER+ patients with low EGFR expression (AQUA), n=113, p=0.01
  Effect of two years of adjuvant tamoxifen on RFS (log rank, Kaplan-Meier): significant effect
[1]; ER+ patients, EGFR high group (AQUA), n=73, p=0.69
  Effect of two years of adjuvant tamoxifen on RFS (log rank, Kaplan-Meier): no treatment effect
[1]; ER+ tamoxifen treated patients with high EGFR expression (AQUA)
  10-year RFS: 52%
[1]; ER+ tamoxifen treated patients, EGFR low group (AQUA)
  10-year RFS: 78%
[1]; ER+ tamoxifen-treated patients, high vs low EGFR (AQUA), Log-Rank p=0.0411
  Association of high EGFR expression with outcome in tamoxifen-treated patients: shorter time to recurrence and breast cancer death
[2]; HER2 IHC 0-2+ (Herceptest), N = 252
  HR RFS: 0.64
[2]; HER2 IHC 3+ (Herceptest), N = 23
  HR RFS: 0.67
